Counter-ions that a name gives are not always drawn. Like-named read-outs stand apart in the source and are kept apart here.
Target: T1, wild-type Androgen Receptor (AR-wt) (Homo sapiens, UniProt P10275)
T1 construct: expressed in transfected cells; host or cells: LNCaP
T1 sequence (P10275 1-920): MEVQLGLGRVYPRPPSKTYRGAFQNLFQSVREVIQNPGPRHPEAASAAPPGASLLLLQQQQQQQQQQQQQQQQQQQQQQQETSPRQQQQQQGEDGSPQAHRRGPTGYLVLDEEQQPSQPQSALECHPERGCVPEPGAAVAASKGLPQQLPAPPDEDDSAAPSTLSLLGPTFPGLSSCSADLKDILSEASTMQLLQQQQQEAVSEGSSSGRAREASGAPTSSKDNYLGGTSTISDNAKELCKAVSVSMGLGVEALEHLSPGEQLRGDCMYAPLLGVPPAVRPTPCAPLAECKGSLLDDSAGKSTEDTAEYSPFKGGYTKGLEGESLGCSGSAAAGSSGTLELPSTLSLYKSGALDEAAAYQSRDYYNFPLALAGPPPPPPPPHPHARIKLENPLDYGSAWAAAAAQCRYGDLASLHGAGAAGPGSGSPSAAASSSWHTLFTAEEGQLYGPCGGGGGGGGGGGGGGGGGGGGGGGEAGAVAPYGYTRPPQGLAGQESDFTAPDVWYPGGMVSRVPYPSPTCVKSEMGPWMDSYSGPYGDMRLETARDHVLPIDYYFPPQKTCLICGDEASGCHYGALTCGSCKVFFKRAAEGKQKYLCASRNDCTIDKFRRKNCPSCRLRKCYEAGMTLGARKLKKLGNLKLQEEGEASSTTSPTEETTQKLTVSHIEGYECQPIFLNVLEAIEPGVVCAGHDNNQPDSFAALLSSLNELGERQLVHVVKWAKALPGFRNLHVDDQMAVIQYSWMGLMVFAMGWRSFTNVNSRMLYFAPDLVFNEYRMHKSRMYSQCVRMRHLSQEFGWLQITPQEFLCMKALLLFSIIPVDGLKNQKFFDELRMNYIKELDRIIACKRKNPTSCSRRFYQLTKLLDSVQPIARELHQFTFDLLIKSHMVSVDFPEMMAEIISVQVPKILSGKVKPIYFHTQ
Assay: AR reporter assay, LNCaP-AR-wt ANT (antagonist mode)
Assay type: cell-based
Conditions: for Emax: read-out: LNCaP-AR-wt ANT MAX % Inh
Text: LNCaP AR (cs) and LNCaP F876L luciferase cell lines were generated by transduction of each cell line (description of cell line generation Joseph J D, Lu N, Qian J, Sensintaffar J, Shao G, Brigham D, Moon M, Maneval E C, Chen I, Darimont B, Hager J H. A clinically relevant androgen receptor mutation confers resistance to second-generation antiandrogens enzalutamide and ARN-509. Cancer Discov 2013; 3:1020-1029) with an Androgen Response Element Firefly Luciferase lentiviral construct at an MOI (multiplicity of infection) of 50 following the manufacturer's instructions (Qiagen). A stable pooled-population cell line was generated using puromycin (Life Technologies) selection at 1:10,000 v/v. The protocol below was used for both cell lines and for testing of the compounds of Formula (I) of the present invention.
LNCaP cells were grown to about 80% confluence, media removed and cells rinsed in Hank's balanced salt solution prior to separation from the plate with 0.05% Trypsin EDTA. Cells were lifted and trypsin negated in complete CSS (charcoal stripped serum) culture media. CSS was maintained on cells for 24 h prior to assay, at which time 5,000 cells/[…] were seeded in Greiner 384 well White/White Tissue Culture Treated Plates and incubated for a further 1-2 hours at 37° C., 5% CO2, prior to addition of 10 μL of 4× Test Compounds (compounds described herein) or Assay Controls (all diluted in complete media containing 10% css). A further 10 μL of 4× R-1881 Agonist Challenge (antagonist assay) or Buffer (agonist assay) was then added (all diluted in complete media containing 10% css). Agonist challenge was at 400 pM for WT assay and 600 pM for F876L assay. Plates containing cells and compounds herein were incubated for a further 20-24 hours at 37° C., 5% CO2 before addition of 40 μL/well of Steady-Glo Luciferase Assay System Reagent (Promega#E2520). After 1 h, plates were read for luminescence on a BMG Pherastar.
Agonist challenge: R-1881 (Metribolone)—Agonist
Antagonist control (low control): 5-(5-(4-((1-Methylpiperidin-4-yl)oxy)phenyl)-8-oxo-6-thioxo-5,7-diazaspiro[3.4]octan-7-yl)-3-(trifluoromethyl)picolinonitrile (WO 2011/103202, EXAMPLE 19, Compound 129, CAS #1332390-06-3).
(1−(Sample RLU−Ave Low Control RLU[10 μM Antagonist Control])/(Ave High Control RLU [400 pM R-1881]−Ave Low Control RLU[10 μM Antagonist Control]))*100.
EC/IC50 calculations were achieved utilizing calculated RLU data and data fitting macros. Data were fit using least-squares methods to the following formula: […]
As used herein: • pIC50 is defined as −Log10(IC50 expressed in [Molar]). • pEC50 is defined as −Log10(EC50 expressed in [Molar]). • MAX % Inh is defined as the maximum % inhibition of R1881 control response observed for a compound over the tested concentration range. • MAX % Stim is defined as the maximum % stimulation (agonist response) observed for a compound over the tested concentration range. • LNCaP-AR-wt ANT refers to the reporter assay using LNCaP cells stably transfected with the Androgen Response Element Firefly Luciferase lentiviral construct and wild-type Androgen Receptor (AR-wt) in Antagonist mode. • LNCaP-AR-wt AG refers to the reporter assay using LNCaP cells stably transfected with the Androgen Response Element Firefly Luciferase lentiviral construct and wild-type Androgen Receptor (AR-wt) in Agonist mode. • LNCaP-AR-F876L ANT refers to the reporter assay using LNCaP cells stably transfected with the Androgen Response Element Firefly Luciferase lentiviral construct and F876L mutant Androgen Receptor (AR-F876L) in Antagonist mode. • LNCaP-AR-F876L AG refers to the reporter assay using LNCaP cells stably transfected with the Androgen Response Element Firefly Luciferase lentiviral construct and F876L mutant Androgen Receptor (AR-F876L) in Agonist mode.

[1] = antagonist mode, 400 pM R-1881 challenge, luciferase reporter, -Log10(IC50 in Molar), read-out: LNCaP-AR-wt ANT pIC50 (converted)

In the case of `CC1(C)C(=O)N(c2ccc(C#N)c(C(F)(F)F)c2)C(=S)N1c1ccc(OC2CCNCC2)cc1` [Compound 1, 4-(4,4-Dimethyl-5-oxo-3-(4-(piperidin-4-yloxy)phenyl)-2-thioxoimidazolidin-1-yl)-2-(trifluoromethyl)benzonitrile], the IC50 is reported as 75.9 nM and the Emax is reported as 106%.

For `CN1CCC(Oc2ccc(N3C(=S)N(c4ccc(C#N)c(C(F)(F)F)c4)C(=O)C3(C)C)cc2)CC1` [Compound 2, 4-(4,4-Dimethyl-3-(4-((1-methylpiperidin-4-yl)oxy)phenyl)-5-oxo-2-thioxoimidazolidin-1-yl)-2-(trifluoromethyl)benzonitrile hydrochloride], the IC50 was 97.7 nM and the Emax was 104%.

For `CC1(C)C(=O)N(c2ccc(C#N)c(C(F)(F)F)c2)C(=S)N1c1ccc(OC2CCNCC2)nc1` [Compound 3, 4-(4,4-Dimethyl-5-oxo-3-(6-(piperidin-4-yloxy)pyridin-3-yl)-2-thioxoimidazolidin-1-yl)-2-(trifluoromethyl)benzonitrile hydrochloride], the IC50 was 46.8 nM and the Emax was 103%.

Compound `CN1CCC(Oc2ccc(N3C(=S)N(c4ccc(C#N)c(C(F)(F)F)c4)C(=O)C3(C)C)cn2)CC1` [Compound 4, 4-(4,4-Dimethyl-3-(6-((1-methylpiperidin-4-yl)oxy)pyridin-3-yl)-5-oxo-2-thioxoimidazolidin-1-yl)-2-(trifluoromethyl)benzonitrile hydrochloride] has an IC50 of 89.1 nM and an Emax of 102%.

`CC1(C)C(=O)N(c2ccc(C#N)c(C(F)(F)F)c2)C(=S)N1c1cnc(OC2CCNCC2)nc1` [Compound 5, 4-(4,4-Dimethyl-5-oxo-3-(2-(piperidin-4-yloxy)pyrimidin-5-yl)-2-thioxoimidazolidin-1-yl)-2-(trifluoromethyl)benzonitrile] was tested, and the IC50 was 170 nM and the Emax was 101%.

`CN1CCC(Oc2ncc(N3C(=S)N(c4ccc(C#N)c(C(F)(F)F)c4)C(=O)C3(C)C)cn2)CC1` [Compound 6, 4-(4,4-Dimethyl-3-(2-((1-methylpiperidin-4-yl)oxy)pyrimidin-5-yl)-5-oxo-2-thioxoimidazolidin-1-yl)-2-(trifluoromethyl)benzonitrile] gave an IC50 of 91.2 nM and an Emax of 102%.

For `CC1(C)C(=O)N(c2ccc(C#N)c(Cl)c2)C(=S)N1c1ccc(OC2CCNCC2)cc1` [Compound 7, 2-Chloro-4-(4,4-dimethyl-5-oxo-3-(4-(piperidin-4-yloxy)phenyl)-2-thioxoimidazolidin-1-yl)benzonitrile hydrochloride], the IC50 was 61.7 nM and the Emax was 101%.

For `CN1CCC(Oc2ccc(N3C(=S)N(c4ccc(C#N)c(Cl)c4)C(=O)C3(C)C)cc2)CC1` [Compound 8, 2-Chloro-4-(4,4-dimethyl-3-(4-((1-methylpiperidin-4-yl)oxy)phenyl)-5-oxo-2-thioxoimidazolidin-1-yl)benzonitrile hydrochloride], the IC50 was 81.3 nM and the Emax was 103%.

For `CC1(C)C(=O)N(c2ccc(C#N)c(Cl)c2)C(=S)N1c1ccc(OC2CCNCC2)nc1` [Compound 9, 2-Chloro-4-(4,4-dimethyl-5-oxo-3-(6-(piperidin-4-yloxy)pyridin-3-yl)-2-thioxoimidazolidin-1-yl)benzonitrile hydrochloride], the IC50 was 57.5 nM and the Emax was 102%.

`CN1CCC(Oc2ccc(N3C(=S)N(c4ccc(C#N)c(Cl)c4)C(=O)C3(C)C)cn2)CC1` [Compound 10, 2-Chloro-4-(4,4-dimethyl-3-(6-((1-methylpiperidin-4-yl)oxy)pyridin-3-yl)-5-oxo-2-thioxoimidazolidin-1-yl)benzonitrile hydrochloride] gave an IC50 of 63.1 nM and an Emax of 102%.

`N#Cc1ccc(N2C(=O)C3(CCC3)N(c3ccc(OC4CCNCC4)cc3)C2=S)cc1C(F)(F)F` [Compound 11, 4-(8-Oxo-5-(4-(piperidin-4-yloxy)phenyl)-6-thioxo-5,7-diazaspiro[3.4]octan-7-yl)-2-(trifluoromethyl)benzonitrile] was tested, and the IC50 was 331 nM and the Emax was 105%.

With `CN1CCC(Oc2ccc(N3C(=S)N(c4ccc(C#N)c(C(F)(F)F)c4)C(=O)C34CCC4)cc2)CC1` [Compound 12, 4-(5-(4-((1-Methylpiperidin-4-yl)oxy)phenyl)-8-oxo-6-thioxo-5,7-diazaspiro[3.4]octan-7-yl)-2-(trifluoromethyl)benzonitrile] the IC50 was 324 nM and the Emax was 104%.

In the case of `N#Cc1ccc(N2C(=O)C3(CCC3)N(c3ccc(OC4CCNCC4)nc3)C2=S)cc1C(F)(F)F` [Compound 13, 4-(8-Oxo-5-(6-(piperidin-4-yloxy)pyridin-3-yl)-6-thioxo-5,7-diazaspiro[3.4]octan-7-yl)-2-(trifluoromethyl)benzonitrile hydrochloride], the IC50 is reported as 63.1 nM and the Emax is reported as 104%.

`CN1CCC(Oc2ccc(N3C(=S)N(c4ccc(C#N)c(C(F)(F)F)c4)C(=O)C34CCC4)cn2)CC1` [Compound 14, 4-(5-(6-((1-Methylpiperidin-4-yl)oxy)pyridin-3-yl)-8-oxo-6-thioxo-5,7-diazaspiro[3.4]octan-7-yl)-2-(trifluoromethyl)benzonitrile] showed an IC50 of 89.1 nM and an Emax of 104%.

For `N#Cc1ccc(N2C(=O)C3(CCC3)N(c3cnc(OC4CCNCC4)nc3)C2=S)cc1C(F)(F)F` [Compound 15, 4-(8-Oxo-5-(2-(piperidin-4-yloxy)pyrimidin-5-yl)-6-thioxo-5,7-diazaspiro[3.4]octan-7-yl)-2-(trifluoromethyl)benzonitrile], the IC50 [1] was 158 nM and the Emax was 102%.

For `CN1CCC(Oc2ncc(N3C(=S)N(c4ccc(C#N)c(C(F)(F)F)c4)C(=O)C34CCC4)cn2)CC1` [Compound 16, 4-(5-(2-((1-Methylpiperidin-4-yl)oxy)pyrimidin-5-yl)-8-oxo-6-thioxo-5,7-diazaspiro[3.4]octan-7-yl)-2-(trifluoromethyl)benzonitrile], the IC50 [1] was 209 nM and the Emax was 102%.

In the case of `Cc1cc(N2C(=O)C3(CCC3)N(c3ccc(OC4CCN(C)CC4)cc3)C2=S)ccc1C#N` [Compound 17, 2-Methyl-4-(5-(4-((1-methylpiperidin-4-yl)oxy)phenyl)-8-oxo-6-thioxo-5,7-diazaspiro[3.4]octan-7-yl)benzonitrile], the IC50 [1] is reported as 170 nM and the Emax is reported as 105%.

Reference: patent US20190337924A1, “SUBSTITUTED HYDANTOIN AND THIOHYDANTOIN DERIVATIVES AS ANDROGEN RECEPTOR ANTAGONISTS” (Janssen Pharmaceutica NV, priority 2016, published 2019)
